# Reference: PubChem BioAssay AID652026 (The Scripps Research Institute Molecular Screening Center, 2013)
# Activity calls are given as the source filed them.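 How the source made its calls: active means STAT5 reporter signal fold change below 0.5 at a 10 µM dose; inactive means the rest.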
# Test system: T47D STAT5-luciferase reporter, prolactin-induced, luminescence
# Assay: reduction of prolactin-induced STAT5 luciferase – cell-based, luminescence, T47D, assay provider, late-stage follow-up (AID 652026)
# Conditions: at 10 µM; active compounds read low
row,Structure (SMILES),fold change
1,CN1/C(=C\C(=O)CN2CCc3ccccc3C2)C(C)(C)c2ccccc21,0.962 (inactive)
2,O=C(C[n+]1ccc2ccccc2c1)c1ccccc1,0.909 (inactive)
3,CN1/C(=C\C(=O)CN2C(=O)NC(C)(c3ccc(Cl)cc3)C2=O)C(C)(C)c2ccccc21 (stereo not given),0.769 (inactive)
4,CCOC(=O)C1CCCN(CC(=O)/C=C2/N(C)c3ccccc3C2(C)C)C1 (stereo not given),0.856 (inactive)
5,O=C(C[n+]1ccc2ccccc2c1)Nc1ccccc1,0.895 (inactive)
6,Cc1cc[n+](CC(=O)/C=C2\N(C)c3ccccc3C2(C)C)c(C)c1,0.67 (inactive)
7,CN1/C(=C\C(=O)Cn2nnc(-c3ccccc3)n2)C(C)(C)c2ccccc21,0.724 (inactive)
8,COc1cccc2cc(C(=O)C[n+]3ccc4ccccc4c3)c(=O)oc12,0.965 (inactive)
9,O=C(C[n+]1ccc2ccccc2c1)c1ccc2ccccc2c1,0.818 (inactive)
10,CN1/C(=C\C(=O)CN2C(=O)c3ccccc3S2(=O)=O)C(C)(C)c2ccccc21,0.733 (inactive)
11,CN1/C(=C\C(=O)C[n+]2ccccc2)C(C)(C)c2ccccc21,0.777 (inactive)
12,CN1/C(=C\C(=O)CN2C(=O)c3ccccc3CS2(=O)=O)C(C)(C)c2ccccc21,0.766 (inactive)
13,CN1/C(=C\C(=O)Cn2cnc3ccc(Cl)cc3c2=O)C(C)(C)c2ccccc21,0.845 (inactive)
14,CN1/C(=C\C(=O)CN2C(=O)C3CC=CCC3C2=O)C(C)(C)c2ccccc21 (stereo not given),0.473
15,COC(=O)C1CCCCN1CC(=O)/C=C1/N(C)c2ccccc2C1(C)C (stereo not given),0.906 (inactive)
16,Cc1cc[n+](CC(=O)/C=C2\N(C)c3ccccc3C2(C)C)cc1,0.738 (inactive)
17,O=C(C[n+]1ccc2ccccc2c1)c1cc2ccccc2oc1=O,0.305
18,CN1/C(=C\C(=O)CN2C(=O)c3ccccc3C2=O)C(C)(C)c2ccccc21,0.859 (inactive)
19,CC(C)(C)C(=O)C[n+]1ccc2ccccc2c1,0.696 (inactive)
20,CN1/C(=C\C(=O)CN2CCCC2)C(C)(C)c2ccccc21,0.704 (inactive)
21,CN1/C(=C\C(=O)Cn2c(=O)c(C#N)cn(C)c2=O)C(C)(C)c2ccccc21,0.739 (inactive)
22,CN1/C(=C\C(=O)CN2C(=O)c3ccc([N+](=O)[O-])cc3C2=O)C(C)(C)c2ccccc21,0.76 (inactive)
23,CN1/C(=C\C(=O)C[n+]2cccc(-c3ccccc3)c2)C(C)(C)c2ccccc21,0.367
24,COc1ccc2oc(=O)c(C(=O)C[n+]3ccc4ccccc4c3)cc2c1,0.843 (inactive)
25,CN1/C(=C\C(=O)Cn2cc(C(F)(F)F)ccc2=O)C(C)(C)c2ccccc21,0.971 (inactive)
